Reference: ChEMBL document CHEMBL5465560, “Selectivity Literature for EUbOPEN Chemogenomic Library” (2024)

Experiments:
[1] = molecular target: T1, Inhibitor of nuclear factor kappa-B kinase subunit beta (Homo sapiens) (UniProt O14920); assay: Selectivity interaction (Kinase panel (KiNativ target engagement assay in Jurkat cells)) EUB0001635a IKBKB; format: cell-based; conditions: Selectivity number of off-targets 0.0, Selectivity number of targets 233.0, Source Knowledge https://www.sciencedirect.com/science/article/pii/S2451945619300674?via%3Dihub, at 1 µM
T1 sequence (whole entry): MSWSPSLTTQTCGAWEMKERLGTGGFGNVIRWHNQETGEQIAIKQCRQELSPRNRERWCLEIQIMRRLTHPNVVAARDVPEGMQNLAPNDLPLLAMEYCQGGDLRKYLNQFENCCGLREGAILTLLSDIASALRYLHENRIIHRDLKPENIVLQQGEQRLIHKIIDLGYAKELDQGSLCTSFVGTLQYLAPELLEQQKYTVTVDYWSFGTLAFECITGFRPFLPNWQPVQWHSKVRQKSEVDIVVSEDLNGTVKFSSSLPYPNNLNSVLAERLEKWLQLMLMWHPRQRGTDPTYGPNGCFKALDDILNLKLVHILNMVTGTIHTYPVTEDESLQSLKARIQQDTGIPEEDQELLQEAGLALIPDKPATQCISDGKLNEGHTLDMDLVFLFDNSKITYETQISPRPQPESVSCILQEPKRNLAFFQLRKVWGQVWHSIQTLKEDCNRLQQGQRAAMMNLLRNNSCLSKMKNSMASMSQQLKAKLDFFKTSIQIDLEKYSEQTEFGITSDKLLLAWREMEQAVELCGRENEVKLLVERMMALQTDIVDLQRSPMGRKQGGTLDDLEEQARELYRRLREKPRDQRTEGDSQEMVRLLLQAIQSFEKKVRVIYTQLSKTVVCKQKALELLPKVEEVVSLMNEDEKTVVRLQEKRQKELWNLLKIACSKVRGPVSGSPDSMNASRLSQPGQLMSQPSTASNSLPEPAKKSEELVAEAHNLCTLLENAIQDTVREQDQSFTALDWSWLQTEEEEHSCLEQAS

[2] = molecular target: T2, Dual specificity mitogen-activated protein kinase kinase 5 (Homo sapiens) (UniProt Q13163); assay: Selectivity interaction (Kinase panel (KiNativ target engagement assay in Jurkat cells)) EUB0001635a MAP2K5; format: cell-based; conditions: Selectivity number of off-targets 0.0, Selectivity number of targets 233.0, Source Knowledge https://www.sciencedirect.com/science/article/pii/S2451945619300674?via%3Dihub, at 1 µM
T2 sequence (whole entry): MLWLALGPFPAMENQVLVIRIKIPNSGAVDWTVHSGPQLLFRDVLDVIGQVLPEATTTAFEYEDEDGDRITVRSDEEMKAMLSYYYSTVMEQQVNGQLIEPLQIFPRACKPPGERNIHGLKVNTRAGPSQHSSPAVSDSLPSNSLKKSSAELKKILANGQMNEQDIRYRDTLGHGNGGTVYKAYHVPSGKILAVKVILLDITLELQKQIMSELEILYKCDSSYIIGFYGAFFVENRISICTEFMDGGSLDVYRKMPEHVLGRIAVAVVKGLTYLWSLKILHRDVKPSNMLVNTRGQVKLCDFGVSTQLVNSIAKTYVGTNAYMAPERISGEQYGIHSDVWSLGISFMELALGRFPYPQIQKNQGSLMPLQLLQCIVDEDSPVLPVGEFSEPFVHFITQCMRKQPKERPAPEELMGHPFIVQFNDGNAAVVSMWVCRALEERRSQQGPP

[3] = molecular target: BDNF/NT-3 growth factors receptor (Homo sapiens) (UniProt Q16620); assay: Selectivity interaction (Kinase panel (Z-LYTE Assay)) EUB0001632a NTRK2; conditions: at 10 µM
Sequence of BDNF/NT-3 growth factors receptor (Homo sapiens) (Q16620 32-822 limits assumed): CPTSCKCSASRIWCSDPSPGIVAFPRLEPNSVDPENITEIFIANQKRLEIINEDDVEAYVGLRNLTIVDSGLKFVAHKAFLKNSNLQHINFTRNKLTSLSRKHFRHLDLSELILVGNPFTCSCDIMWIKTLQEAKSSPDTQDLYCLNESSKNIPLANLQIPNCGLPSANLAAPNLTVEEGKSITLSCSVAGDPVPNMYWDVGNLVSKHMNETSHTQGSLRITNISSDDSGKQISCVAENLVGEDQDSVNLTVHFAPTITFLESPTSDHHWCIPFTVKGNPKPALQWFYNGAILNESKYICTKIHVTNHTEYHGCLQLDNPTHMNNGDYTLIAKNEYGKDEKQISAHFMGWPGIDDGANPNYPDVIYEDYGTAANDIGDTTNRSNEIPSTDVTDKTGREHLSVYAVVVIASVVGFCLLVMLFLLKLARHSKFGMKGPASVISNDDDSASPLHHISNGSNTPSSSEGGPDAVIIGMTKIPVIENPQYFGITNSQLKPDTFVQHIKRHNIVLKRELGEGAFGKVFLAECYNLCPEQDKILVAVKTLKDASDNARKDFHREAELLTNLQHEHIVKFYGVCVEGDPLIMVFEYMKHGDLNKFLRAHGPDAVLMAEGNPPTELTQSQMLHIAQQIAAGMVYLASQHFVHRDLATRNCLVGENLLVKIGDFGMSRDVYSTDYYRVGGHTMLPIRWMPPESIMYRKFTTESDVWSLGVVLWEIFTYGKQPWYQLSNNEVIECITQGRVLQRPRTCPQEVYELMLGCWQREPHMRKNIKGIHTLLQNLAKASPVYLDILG

[4] = molecular target: Serine/threonine-protein kinase pim-1 (Homo sapiens, UniProt P11309); conditions: at 10 µM
Sequence of Serine/threonine-protein kinase pim-1 (P11309 whole entry, looked up): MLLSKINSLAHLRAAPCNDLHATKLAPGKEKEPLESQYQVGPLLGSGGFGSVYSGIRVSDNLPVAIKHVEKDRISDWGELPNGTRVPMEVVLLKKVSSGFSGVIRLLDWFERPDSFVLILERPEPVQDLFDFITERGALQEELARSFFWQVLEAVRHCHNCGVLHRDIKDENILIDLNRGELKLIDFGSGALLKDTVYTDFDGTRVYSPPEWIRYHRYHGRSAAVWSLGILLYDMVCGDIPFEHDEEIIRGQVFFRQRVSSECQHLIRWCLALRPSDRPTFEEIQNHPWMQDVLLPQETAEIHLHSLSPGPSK

[5] = molecular target: T3, Dual specificity mitogen-activated protein kinase kinase 4 (Homo sapiens) (UniProt P45985); assay: Selectivity interaction (Kinase screening (Upstate/Millipore)) EUB0000604a MAP2K4
T3 sequence (whole entry): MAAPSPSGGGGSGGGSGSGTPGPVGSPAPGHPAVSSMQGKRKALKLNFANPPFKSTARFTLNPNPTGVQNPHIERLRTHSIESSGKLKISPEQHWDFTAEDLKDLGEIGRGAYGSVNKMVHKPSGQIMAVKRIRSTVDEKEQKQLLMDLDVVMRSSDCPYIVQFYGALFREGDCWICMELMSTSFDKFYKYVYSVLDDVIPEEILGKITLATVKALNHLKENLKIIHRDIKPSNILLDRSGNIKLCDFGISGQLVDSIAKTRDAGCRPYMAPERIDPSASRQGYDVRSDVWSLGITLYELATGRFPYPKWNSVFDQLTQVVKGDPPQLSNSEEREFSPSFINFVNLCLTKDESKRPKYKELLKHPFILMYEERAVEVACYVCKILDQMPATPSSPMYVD

[6] = molecular target: Protein kinase C eta type (Homo sapiens) (UniProt P24723); assay: Selectivity interaction (KinomeScan (DiscoverX)) EUB0001049a PRKCH; conditions: at 1 µM
Sequence of Protein kinase C eta type (Homo sapiens) (P24723 whole entry): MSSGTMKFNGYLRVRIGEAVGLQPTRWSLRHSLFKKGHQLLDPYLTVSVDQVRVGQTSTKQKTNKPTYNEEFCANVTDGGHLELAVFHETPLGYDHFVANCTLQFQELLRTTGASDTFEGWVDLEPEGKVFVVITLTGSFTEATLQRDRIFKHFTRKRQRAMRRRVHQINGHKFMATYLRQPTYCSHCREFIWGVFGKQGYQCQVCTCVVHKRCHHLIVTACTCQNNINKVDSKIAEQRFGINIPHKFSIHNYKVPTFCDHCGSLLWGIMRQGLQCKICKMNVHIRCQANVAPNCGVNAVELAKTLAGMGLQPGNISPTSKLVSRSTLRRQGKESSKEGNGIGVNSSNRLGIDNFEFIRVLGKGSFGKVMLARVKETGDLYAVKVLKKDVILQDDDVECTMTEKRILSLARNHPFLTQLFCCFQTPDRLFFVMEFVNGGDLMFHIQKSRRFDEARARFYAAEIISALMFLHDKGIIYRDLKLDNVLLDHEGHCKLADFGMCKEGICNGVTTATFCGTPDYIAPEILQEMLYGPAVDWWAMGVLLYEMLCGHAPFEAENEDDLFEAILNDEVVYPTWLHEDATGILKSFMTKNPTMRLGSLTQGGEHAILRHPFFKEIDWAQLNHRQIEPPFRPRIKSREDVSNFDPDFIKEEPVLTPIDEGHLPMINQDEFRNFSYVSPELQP

[7] = molecular target: CDK12/Cyclin K (Homo sapiens) (UniProt O75909+Q9NYV4); assay: (§1) Selectivity interaction (ProQinase) EUB0000171b CDK12; format: protein-complex assay
Sequence of CDK12/Cyclin K (Homo sapiens) (O75909 whole entry, looked up): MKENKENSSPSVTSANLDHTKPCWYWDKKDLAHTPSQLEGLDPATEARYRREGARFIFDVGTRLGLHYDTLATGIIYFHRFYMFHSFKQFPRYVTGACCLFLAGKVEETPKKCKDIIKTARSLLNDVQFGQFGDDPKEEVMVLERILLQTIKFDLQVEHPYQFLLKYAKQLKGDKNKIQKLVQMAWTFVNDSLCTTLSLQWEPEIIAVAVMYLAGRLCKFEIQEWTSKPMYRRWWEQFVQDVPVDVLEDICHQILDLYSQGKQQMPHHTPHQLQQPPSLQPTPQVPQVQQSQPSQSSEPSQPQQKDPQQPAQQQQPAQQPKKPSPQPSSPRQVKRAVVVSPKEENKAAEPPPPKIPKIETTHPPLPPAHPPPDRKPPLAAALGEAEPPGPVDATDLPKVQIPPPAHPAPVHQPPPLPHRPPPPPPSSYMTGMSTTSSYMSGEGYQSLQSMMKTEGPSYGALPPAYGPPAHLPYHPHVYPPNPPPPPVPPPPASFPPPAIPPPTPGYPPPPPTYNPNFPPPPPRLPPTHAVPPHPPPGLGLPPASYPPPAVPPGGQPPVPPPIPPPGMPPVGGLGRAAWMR
Sequence of CDK12/Cyclin K (Homo sapiens) (Q9NYV4 whole entry, looked up): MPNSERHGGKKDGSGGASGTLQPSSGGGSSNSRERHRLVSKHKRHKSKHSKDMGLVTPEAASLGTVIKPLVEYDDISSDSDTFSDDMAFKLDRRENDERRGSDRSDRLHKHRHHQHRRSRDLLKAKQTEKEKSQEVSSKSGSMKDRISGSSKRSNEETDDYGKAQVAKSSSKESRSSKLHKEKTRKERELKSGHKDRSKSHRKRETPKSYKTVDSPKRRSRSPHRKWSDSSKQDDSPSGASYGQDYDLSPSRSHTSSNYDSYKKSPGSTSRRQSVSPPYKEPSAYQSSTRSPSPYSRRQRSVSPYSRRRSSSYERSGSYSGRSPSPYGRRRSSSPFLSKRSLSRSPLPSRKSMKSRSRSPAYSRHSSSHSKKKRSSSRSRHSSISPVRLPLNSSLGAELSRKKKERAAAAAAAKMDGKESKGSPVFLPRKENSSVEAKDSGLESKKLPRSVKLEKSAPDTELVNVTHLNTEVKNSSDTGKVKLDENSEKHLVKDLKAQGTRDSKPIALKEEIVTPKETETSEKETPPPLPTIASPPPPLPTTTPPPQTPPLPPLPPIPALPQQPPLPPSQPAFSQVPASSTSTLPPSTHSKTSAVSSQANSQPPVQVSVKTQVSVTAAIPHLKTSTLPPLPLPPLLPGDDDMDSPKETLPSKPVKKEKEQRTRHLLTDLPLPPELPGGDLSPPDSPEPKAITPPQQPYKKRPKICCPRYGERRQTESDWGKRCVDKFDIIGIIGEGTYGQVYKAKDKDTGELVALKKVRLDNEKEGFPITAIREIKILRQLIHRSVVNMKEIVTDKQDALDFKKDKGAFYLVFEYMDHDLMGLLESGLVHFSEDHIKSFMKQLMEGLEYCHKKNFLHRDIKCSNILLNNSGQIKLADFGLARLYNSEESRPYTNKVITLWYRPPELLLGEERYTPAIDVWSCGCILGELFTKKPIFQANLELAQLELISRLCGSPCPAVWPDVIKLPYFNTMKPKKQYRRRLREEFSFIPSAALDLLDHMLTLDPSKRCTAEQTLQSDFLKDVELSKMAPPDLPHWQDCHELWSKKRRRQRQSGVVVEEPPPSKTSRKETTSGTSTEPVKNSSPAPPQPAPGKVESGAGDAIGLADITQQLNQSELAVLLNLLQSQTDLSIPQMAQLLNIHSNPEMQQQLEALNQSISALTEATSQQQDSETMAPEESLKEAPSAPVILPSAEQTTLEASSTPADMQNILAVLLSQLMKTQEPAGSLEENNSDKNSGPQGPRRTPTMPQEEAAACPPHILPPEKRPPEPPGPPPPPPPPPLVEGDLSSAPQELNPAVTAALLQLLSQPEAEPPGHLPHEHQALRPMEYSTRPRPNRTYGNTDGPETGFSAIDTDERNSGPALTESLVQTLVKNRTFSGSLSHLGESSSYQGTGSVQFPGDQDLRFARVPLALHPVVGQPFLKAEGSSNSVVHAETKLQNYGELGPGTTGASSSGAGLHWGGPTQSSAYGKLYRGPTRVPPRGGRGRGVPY

[8] = system: CDK12/Cyclin K (Homo sapiens), O75909+Q9NYV4 [R722C]; assay: as §1; format: protein-complex assay; conditions: at 5 µM
[9] = molecular target: Receptor-interacting serine/threonine-protein kinase 2 (Homo sapiens, UniProt O43353); assay: Selectivity interaction (ProQinase) EUB0000171b RIPK2
Sequence of Receptor-interacting serine/threonine-protein kinase 2 (O43353 whole entry): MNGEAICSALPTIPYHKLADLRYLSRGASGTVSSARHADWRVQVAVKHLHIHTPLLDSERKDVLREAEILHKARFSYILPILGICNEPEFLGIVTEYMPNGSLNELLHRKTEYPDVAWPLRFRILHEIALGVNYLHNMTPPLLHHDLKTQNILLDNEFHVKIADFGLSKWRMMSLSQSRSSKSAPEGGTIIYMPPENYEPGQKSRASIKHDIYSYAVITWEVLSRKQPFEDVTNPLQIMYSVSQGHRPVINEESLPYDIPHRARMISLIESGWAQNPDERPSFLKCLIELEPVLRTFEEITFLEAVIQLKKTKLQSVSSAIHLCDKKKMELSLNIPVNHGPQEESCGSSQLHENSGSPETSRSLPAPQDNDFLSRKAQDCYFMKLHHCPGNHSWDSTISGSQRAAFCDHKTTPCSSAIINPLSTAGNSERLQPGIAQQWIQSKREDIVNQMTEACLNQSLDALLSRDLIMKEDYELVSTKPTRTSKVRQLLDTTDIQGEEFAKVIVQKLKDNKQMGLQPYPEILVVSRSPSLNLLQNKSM

[10] = molecular target: Serine/threonine-protein kinase mTOR (Homo sapiens, UniProt P42345); assay: Selectivity interaction (ActivX KiNativ screen (kinase selectivity in THP-1 cell lysates)) EUB0000639a MTOR; format: subcellular; conditions: lysate

Question: Which % of engagement [1] does the source give for C=CC(=O)Nc1ccc(C(=O)Nc2[nH]nc3c2CN(C(=O)N[C@H](CN(C)C)c2ccccc2)C3(C)C)cc1 here?
Answer: -20.2%

Question: And the % of engagement [2]?
Answer: 5.3%

Question: Cn1cc(-n2cnc3c(NCc4nc5cc(Cl)c(Cl)cc5[nH]4)nc(N4CCOCC4)nc32)cn1 was tested. Which % of control [3] did it give?
Answer: 4.86%

Question: With Cc1cc([C@@H](C)Nc2ccccc2C(=O)O)c2nc(N3CCOCC3)cc(=O)n2c1 [AZD-6482] as the molecule, how does the % of control [4] read?
Answer: 100%

Question: Cc1cnc(Nc2ccc(F)cc2Cl)nc1-c1c[nH]c(C(=O)N[C@H](CO)c2cccc(Cl)c2)c1 was tested. Which % of inhibition [5] did it give?
Answer: 69%

Question: Which % of control [6] does the source give for COc1cc(Nc2nc(C)cc(-c3cnn4nc(OC)ccc34)n2)cc(C(F)(F)F)c1 here?
Answer: 100%

Question: How did the % of control ([7]; at 1 µM) turn out when C=CC(=O)Nc1cccc(C(=O)Nc2ccc(Nc3cc(-c4[nH]c(SC)nc4C)ccn3)cc2)c1 was run?
Answer: 93%

Question: What about the % of control ([7]; at 5 µM) of the same molecule?
Answer: 57%

Question: What about the % of control [8] of the same molecule?
Answer: 66%

Question: And the % of control ([9]; at 1 µM)?
Answer: 77%

Question: And the % of control ([9]; at 5 µM)?
Answer: 43%

Question: For CC[C@@H]1[C@H](F)C(=O)N[C@@H]1COc1nccc2cc(C(N)=O)c(OC)cc12 [ZIMLOVISERTIB], which % of inhibition ([10]; at 0.01 µM) is on record?
Answer: 8%

Question: And the % of inhibition ([10]; at 0.04 µM)?
Answer: 3%

Question: And the % of inhibition ([10]; at 0.2 µM)?
Answer: 4.3%

Question: And the % of inhibition ([10]; at 1 µM)?
Answer: 9.9%

Question: And the % of inhibition ([10]; at 5 µM)?
Answer: -4.7%
